Data as given in patent publication US20190282632A1, “METHODS AND PRODUCTS FOR MODULATING MICROBIOTA COMPOSITION FOR IMPROVING THE EFFICACY OF A CANCER TREATMENT WITH AN IMMUNE CHECKPOINT BLOCKER” (INSTITUT GUSTAVE ROUSSY, priority 2014, published 2019).
Entries after “also recorded” stand apart in the source; their conditions may differ. Read-outs that look alike come from different tables or passages of the source.

Key:
[1] = test system: MCA205 sarcoma; experiment: Tumor growth of established MCA205 sarcoma under anti-CTLA4 (9D9) therapy, with antibiotics, gene-deficient hosts, co-administered mAbs or oral bacteria; details: for Effect of antibiotic regimen on the antitumor effects of 9D9 Ab against MCA205 sarcomas: SPF mice, antibiotics in drinking water
Experimental: Mice were subcutaneously injected into the right flank with 1×10^6 MCA205-0VA or MC38, or with 0.2×10^6 CT26 tumor cell lines. When tumors reached a size of 25 to 40 mm^2 (day 0), mice were injected intraperitoneally (i.p) with 100 μg of anti-CTLA-4 mAb (clone 9D9) or isotype control (clone MPC11). Mice were injected 5 times at 3-day intervals with 9D9, and tumor size was routinely monitored by means of a caliper. In order to evaluate the synergistic effect of vancomycin and anti-CTLA4, a prophylactic setting was established. […] In experiments using anti-IL-12p40 mAb (clone C17.8, 500 μg per mouse) or anti-Ly6G mAb (clone 1A8, 200 μg per mouse), mAbs (or their isotype controls, clone 2A3 in both cases) were injected i.p. every 2 days starting from day 0 until the final anti-CTLA-4 injection. […] All mAbs for in vivo use were obtained from BioXcell (West Lebanon, N.H., USA), using the recommended isotype control mAbs. The inhibitor of iNOS, NG-monomethyl-L-arginine (L-NMMA; Sigma), was administered in PBS daily to mice i.p. at a dose of 2 mg per mouse from the start of anti-CTLA4 treatment.
Mice were treated with antibiotics 2-3 weeks before tumor implantation and continued on antibiotics until the end of the experiment. A mix of ampicillin (1 mg/ml), streptomycin (5 mg/ml), and colistin (1 mg/ml) (Sigma-Aldrich), or vancomycin alone (0.25 mg/ml), or imipenem alone (0.25 mg/ml), or colistin alone (2.103 U/ml) were added in sterile drinking water. Solutions and bottles were changed 2-3 times a week, or daily for experiments with imipenem. Antibiotic activity was confirmed by macroscopic changes observed at the level of caecum (dilatation) and by cultivating the fecal pellets resuspended in BHI+15% glycerol at 0.1 g/ml on blood agar plates for 48 h at 37° C. with 5% CO2 in aerobic or anaerobic conditions.
For inoculation of GF mice or mice treated with broad-spectrum antibiotics, colonization was performed the day following the first anti-CTLA4 injection by oral gavage with 100 μl of suspension containing 1×10^9 bacteria. Efficient colonization was checked by culture of feces 48 h post oral gavage. Bacteroides fragilis, Bacteroides thetaiotaomicron, Bacteroides distasonis, Bacteroides uniformis, Lactobacillus plantarum and Enterococcus hirae were grown on COS agar plates (Biomerieux) for 48 h at 37° C. with 5% CO2 in anaerobic conditions. E. coli and Burkholderia cepacia were grown on COS agar plates for 24 h at 37° C. with 5% CO2 in aerobic conditions. Bacteria were harvested from the agar plates, suspended in sterile PBS, centrifuged and washed once with PBS, then resuspended in sterile PBS at an optical density (600 nm) of 1, which corresponds approximately to 1×10^9 colony-forming units (CFU)/ml. In cases where more than one bacteria was administered, an equal volume of each bacteria suspension was mixed to give a suspension of equal proportion of each type of bacteria, to a total 1×10^9 bacteria/ml. For bacteria reconstitution experiments using mice previously treated with antibiotics, antibiotics treatment was stopped after 2-3 weeks at the first anti-CTLA4 injection, and mice were orally gavaged with 1×10^9 CFU the following day. B. distasonis, B. uniformis, E. hirae, and E. coli isolates used in the experiments were originally isolated from feces or mesenteric lymph nodes of SPF mice treated with anti-CTLA4 and identified as described above. […] LPS-EK and LTA-SA (Invivogen) were administrated by oral gavage, at a dose of 500 μg per mouse.

[2] = test system: CD4+CD45RO+ T cells; experiment: Recall of human CD4+ T cell responses directed against commensals (IFNγ, IL-10); assay type: cell-based
Experimental: (§1) All clinical studies were conducted after informed consent of the patients, following the guidelines of the Declaration of Helsinki. Peripheral blood mononuclear cells (PBMC) were provided by Gustave Roussy (Villejuif, France) and by the Department of Radiation Oncology (New York University, New York, N.Y., USA). Patients were included in the following protocols: LUDWIG: MAGE3 protein—based vaccines (25), Meladex vaccine Phase I trial (26), Mel-Ipi-Rx, NCT01557114 (European Union Drug Regulating Authorities clinical trial EudraCT 2010-020317-93) and a pilot study approved by the Kremlin Bicetre Hospital Ethics Committee (n° SC12-018; ID RCB: 2012-A01496-37). Ipilimumab/radiotherapy abscopal effect trials in MM and NSCLC at NYU (Study code: NCT01689974, Study code: NCT0222173). MM patients at baseline were investigated prior to vaccine injections in the Ludwig and Meladex protocols. For memory T cell responses, blood samples were drawn from patients before and after 3 or 4 cycles of ipilimumab. Pyrosequencing analyses of 16S rRNA of gene amplicons in patients feces pre- and post-injections of ipilimumab (V0, V1, V2) were performed according to n° SC12-018; ID RCB: 2012-A01496-37 pilot study endpoints by GATC Biotech AG (Konstanz, Germany).
Assessing CD4^+ T cell memory responses. Murine systems. Bone marrow-derived dendritic cells (BM-DCs) were generated from femurs and tibiae of C57BL/6 mice, cultured for 7 days in Iscove's medium (Sigma-Aldrich) with J558 supernatant (final GM-CSF concentration of 40 ng/ml), 10% FCS, 100 IU/ml penicillin/streptomycin, 2 mM L-glutamine, 50 μM 2-mercaptoethanol (Sigma-Aldrich) and split every 3-4 days. At day 7, BM-DCs were infected with the isolated bacterial strains at multiplicity of infection (MOI) of 10 or 50, for 1 h at 37° C. in complete Iscove's medium without antibiotics, onto specific low binding 6 wells plates (Sigma). Cells were then washed with PBS and incubated in complete Iscove's medium supplemented with gentamicin (50 μg/ml) to kill extracellular bacteria. For Burkholderia cepacia, the antibiotic meropenem (2 μg/mL, Astra Zeneca) was required. After 24 h, BM-DCs were cultured together with CD4^+ T cells purified from the spleens of mice that had received 7 days treatment of anti-CTLA4 mAb (i.e 3 anti-CTLA4 mAb injections, as detailed above) in complete RPMI medium. CD4^+ T cells were isolated by depletion of non CD4^+ T cells using a cocktail of biotin-conjugated antibodies against CD8a, CD11b, CD11c, CD19, CD45R (B220), CD49b (DX5), CD105, Anti-MHC-class II, Ter-119 and TCRγ/δ as primary labeling reagent. The cells were then magnetically labeled with Anti-Biotin MicroBeads (Miltenyi Biotec, France). […]

[3] = test system: gut microbiome of metastatic melanoma patients; experiment: Pyrosequencing of 16S rRNA gene amplicons of patients' feces and clustering into enterotypes A, B, C; assay type: in vivo, human
Experimental: as §1
GOLD: Prospective immunomonitoring study of patients with metastatic melanoma receiving four injections of Ipilimumab every three weeks. In addition to peripheral blood sampling for memory T cell responses assessment, feces were collected before each Ipilimumab injection. Feces samples were frozen at −80° C. and sent for 16RNA pyrosequencing analysis at GATC Biotech AG (Konstanz, Germany).

[4] = test system: metastatic melanoma; details: cited from earlier work; for Durable disease control: after more than 7 years of follow-up, MM
[5] = test system: bacterial families and orders in feces; experiment: 454 pyrosequencing of 16S rRNA gene amplicons of feces from tumor bearers
Experimental: Fecal samples used in this study were collected before or after one injection of anti-CTLA4 (or isotype control) from mice under vancomycin regimen or water, and were kept at −80° C. until further analysis. Library preparation and sequencing were conducted at GATC Biotech AG (Konstanz, Germany).

[6] = test system: small intestine and colon; experiment: Histology and histopathological scoring of gut tissue; assay type: in vivo, mice; details: vancomycin-treated tumor bearers
Experimental: The whole small intestine (duodenum, jejunum and ileum) and the colon were removed, cleaned from feces and fixed in 4% PFA for 1 h. Rehydratation of the tissue was performed in 15% sucrose for 1 h and in 30% sucrose overnight. Small intestines or colons were cut longitudinally, with the resulting ribbons rolled, then embedded in optimum cutting temperature (OCT) compound (Sakura), snap frozen, and longitudinal 6 μm sections were prepared. For histological analysis, longitudinal sections were counterstained with hematoxilin and eosin. For histological quantitative analysis, inflammatory foci, appearance of the submucosa, length of villi, and the thickness of lamina propria were scored for each section by a pathologist.

## colistin
[1]
  Effect of antibiotic regimen on the antitumor effects of 9D9 Ab against MCA205 sarcomas: compromised the antitumor effects

## Ipilimumab
[2]; at least in some cases
  Decreased commensal-specific Th1 immunity of cancer patients: restored
[2]; melanoma patients, after at least 2 injections
  IL-10 production by T cells responding to Bf, B. thetaiotaomicron and to some extent Burkholderia cepacia: inhibited
[2]; melanoma patients, after at least 2 injections, not E. coli, E. faecalis or irrelevant bacteria
  IFNγ secretion by T cells responding to Bf and B. thetaiotaomicron: significantly increased
[2]; paired analyses on 5-12 patients
  B. thetaiotaomicron-specific Tr1 immune responses: decrease
[3]; from 26 before therapy
  Proportion of MM patients falling into cluster C during therapy: 39%
[3]; from 58 before therapy
  Proportion of MM patients belonging to cluster B during therapy: 39%
[3]; paired analysis of feces in 12 cases, 2 out of 7
  Stools of a B pattern that turned into the C favorable enterotype: 29%
[4]
  Durable disease control: about 20%
[4]; listed as ipilimumab
  Durable disease control: approximately 20%
[4]; human, in vivo, iv
  Immune-related adverse events of grade III-IV: 20%
[4]; human, in vivo
  Life threatening immune-related adverse events: < 5%

## CN[C@H](CC(C)C)C(=O)N[C@H]1C(=O)N[C@@H](CC(N)=O)C(=O)N[C@H]2C(=O)N[C@H]3C(=O)N[C@H](C(=O)N[C@H](C(=O)O)c4cc(O)cc(O)c4-c4cc3ccc4O)[C@H](O)c3ccc(c(Cl)c3)Oc3cc2cc(c3O[C@@H]2O[C@H](CO)[C@@H](O)[C@H](O)[C@H]2O[C@H]2C[C@](C)(N)[C@H](O)[C@H](C)O2)Oc2ccc(cc2Cl)[C@H]1O [Vancomycin, vancomycin]
[5]; vancomycin conditioning
  Depletion of Bacteroidales and Burkholderiales provoked by CTLA4 blockade: prevented the depletion; also recorded: prevented the loss
[5]; vancomycin in drinking water
  Representation of Bacteroidales (and Enterobacteriales) at the expense of Clostridiales: overrepresentation
[1]
  Effect of antibiotic regimen on the antitumor effects of 9D9 Ab against MCA205 sarcomas: boosted the antitumor effects; also recorded: augments the tumoricidal effects
[1]; listed as vancomycin
  Effect of antibiotic regimen on the antitumor effects of 9D9 Ab against MCA205 sarcomas: ameliorated the tumor growth reduction
[6]
  Histopathological score of colonic mucosae under anti-CTLA4: worsened the histopathological score

## lipoteichoic acid
[1]; oral administration, 500 μg per mouse
  Restoration of 9D9 mAb-induced antitumor effects lost in ACS-treated mice: failed to restore

## CNC(=N)NCCC[C@H](N)C(=O)O [L-NMMA, NG-monomethyl-L-arginine]
[1]; 2 mg per mouse daily i.p.
  9D9 mAb-induced tumoricidal activity upon neutralization of nitric oxide: failed to affect; also recorded: did not alter the antitumor effects
